The source of these data is US20260232709A1, “COMPOSITION COMPRISING MELOSIDE FOR ALLEVIATING HAIR LOSS AND IMPROVING HAIR GROWTH” (MORECHEM CO., LTD., priority 2024, published 2026).

Entries after “also recorded” stand apart in the source; their conditions may differ.

What all share (assay type): cell-based, human
In assay [1] the test system is reactive oxygen species (ROS). Nature of the assay: DHT-induced intracellular reactive oxygen species in HDPC (DCF-DA fluorescence). As to conditions: 30 or 100 ppm with 100 μg/mL DHT, 24 hours, FIGS. 12 and 13. As to the method:
The intracellular reactive oxygen species inhibition effect was evaluated using human hair dermal papilla cells (HDPC). Measurement was performed by utilizing the principle that the non-fluorescent substance 2′,7′-dichlorodihydrofluorescein diacetate (DCF-DA) reacts with intracellularly generated free radicals and oxidizes into the fluorescent substance 2′,7′-dichlorofluorescein (DCF).
Human dermal papilla cells were seeded into 12-well plates at 5.5×10^4 cells/well and cultured for 24 hours in a 37° C., 5% CO2 incubator. Subsequently, samples prepared at various concentrations were treated into each well and cultured for 23 hours in a 37° C., 5% CO2 incubator. For the treated groups, Meloside A or L at 30 or 100 ppm were treated along with DHT. For control groups, HDPC treated with 100 μg/mL DHT but without Meloside A and L, and untreated HDPC (neither Meloside A or L nor DHT) were used. […] After removing DCF-DA and washing twice with PBS, images were taken every 10 minutes for 30 minutes using a fluorescence microscope at Ex 485 nm and Em 535 nm. The level of intracellular reactive oxygen species generation was measured by quantifying fluorescence intensity in […] using Image J, thereby confirming the ROS reduction efficacy of Meloside.

Assay [2] has as its system Vascular Endothelial Growth Factor (VEGF). Nature of the assay: VEGF expression in HDPC supernatant (ELISA). As to conditions: 30 or 100 ppm, 1 day, FIG. 8. As for the experimental part: HDPC were treated with Meloside A or L at concentrations of 30 or 100 ppm, respectively, for 1 day to obtain the cell supernatant. For comparison, HDPC that were not treated with either Meloside A or L were used as the negative control group, and HDPC treated with 100 μM Minoxidil were used as the positive control group.
The increase or decrease in VEGF expression level in the obtained cell supernatant was confirmed through an Enzyme-Linked Immunosorbent Assay (ELISA) method, and the results are shown in FIG. 8.
Background: An ELISA detects its analyte on a solid surface through an enzyme-linked reagent.

Another assay relates to DKK1. Nature of the assay: DKK1 expression in DHT-treated HDPC supernatant (ELISA). As to conditions: HDPC treated with DHT, 30 or 100 ppm, 1 day, FIG. 7. As for the experimental part: HDPC were treated with DHT to increase DKK1 expression, and then treated with Meloside A or L at concentrations of 30 or 100 ppm, respectively, for 1 day to obtain the cell supernatant. For comparison, HDPC treated with Dihydrotestosterone (DHT) but without Meloside A and L were used as the untreated group, and HDPC treated with 100 μM Minoxidil were used as the positive control group.
The increase or decrease in DKK1 expression level in the obtained cell supernatant was confirmed through an Enzyme-Linked Immunosorbent Assay (ELISA) method, and the results are shown in FIG. 7.

The subject of another assay is Androgen Receptor (AR). Nature of the assay: Androgen receptor expression in DHT-treated HDPC (Western blot). As to conditions: HDPC pre-treated with 1 μM DHT, 30 or 100 ppm, 1 day, FIGS. 3 and 4. As for the experimental part:
Human hair dermal papilla cells (HDPC), used in the test examples described below, were cultured in Dulbecco's Modified Eagle Medium (DMEM, WELGENE) supplemented with 10% Fetal Bovine Serum (FBS, WELGENE) and 1% antibiotics (Penicillin-Streptomycin, WELGENE) as the culture medium, in an incubator at 37° C., 5% CO2, and humid conditions.
Specifically, the following groups were prepared: (i) a negative control group, where neither Dihydrotestosterone (DHT) nor Meloside A and L were treated on human dermal papilla cells (HDPC); (ii) an untreated group, where 1 μM DHT was treated on HDPC, but neither Meloside A nor L was treated; (iii) a positive control group, where 1 μM DHT was treated on HDPC, followed by treatment with 100 μM Minoxidil instead of Meloside A and L; and (iv) a treated group, where HDPC were first treated with 1 μM DHT to activate androgen receptors, and then treated with Meloside A or L at concentrations of 30 or 100 ppm, respectively, for 1 day. After preparation, the HDPC from (i) to (iv) were lysed, and the increase or decrease in the expression level of Androgen Receptor (AR) was confirmed using the Western blot technique. Here, for the analysis of relative expression patterns for each sample, the expression level was normalized based on the expression level of Actin. […]

Assay [3] concerns dermal papilla cells (HDPC). Nature of the assay: Protection against DHT-induced death of dermal papilla cells (CCK-8). As to conditions: 30 or 100 ppm for 1 day, then DHT, FIG. 9. As for the experimental part:
Specifically, HDPC were treated with Meloside A or L at concentrations of 30 or 100 ppm, respectively, for 1 day, and then cell death was induced with Dihydrotestosterone (DHT), For comparison, HDPC that were neither treated with Meloside A or L nor with DHT were used as the negative control group. HDPC treated with DHT but without Meloside A and L were used as the untreated group. HDPC treated with 100 μM Minoxidil or 5 mM NAC (N-acetyl cysteine) followed by DHT treatment were used as the positive control group.
CCK-8 (Cell Counting Kit-8, Dojindo, EU) reagent was added to the HDPC according to the manufacturer's protocol, and absorbance was measured at a wavelength of 450 nm using a microplate reader (BioTeK, USA) to confirm the cell viability of dermal papilla cells because of Meloside treatment, compared to the negative control group (treated with DMEM instead of Meloside A or L).

With `O=c1cc(-c2ccc(O)cc2)oc2cc(O)c([C@@H]3O[C@H](CO)[C@@H](O)[C@H](O)[C@H]3O[C@@H]3O[C@H](CO)[C@@H](O)[C@H](O)[C@H]3O)c(O)c12` [Meloside A, isovitexin 2″-O-glucoside], the “reactive oxygen species (ROS) generation” value in assay [1] is reported as “reduction in reactive oxygen species (ROS) generation”. Moreover, the VEGF expression level result in assay [2] is “increase in VEGF expression; also recorded: superior to that of Meloside L”. Besides, the DKK1 expression level entry with DKK1 is on record as “concentration-dependent decrease in DKK1 expression”. Also, the “androgen receptor (AR) expression level, normalized to Actin” value with Androgen Receptor (AR) is recorded as “concentration-dependent; also recorded: superior effect in decreasing the expression level of androgen receptor (AR) compared to Meloside L”. Moreover, the “cell protective effect against DHT (cell viability)” value in assay [3] was “cell protective effect against DHT was confirmed”.
Turning to `O=c1cc(-c2ccc(O)c(O)c2)oc2cc(O)c([C@@H]3O[C@H](CO)[C@@H](O)[C@H](O)[C@H]3O[C@@H]3O[C@H](CO)[C@@H](O)[C@H](O)[C@H]3O)c(O)c12` [Meloside L, isoorientin 2″-O-glucoside], the “reactive oxygen species (ROS) generation” value in assay [1] is on record as “reduction in reactive oxygen species (ROS) generation”. Besides, the VEGF expression level result in assay [2] is recorded as “increase in VEGF expression”. The DKK1 expression level result in the assay on DKK1 is listed as “no effect was observed”. Further, the “androgen receptor (AR) expression level, normalized to Actin” value with Androgen Receptor (AR) is “concentration-dependent”. Moreover, the “cell protective effect against DHT (cell viability)” value in assay [3] is reported as “no cell protective effect against DHT was observed”.
